Experimental data: patent publication US11773420B2, “Process for enzymatic hydrolysis of lignocellulosic material and fermentation of sugars” (VERSALIS S.P.A., priority 2014, dated 2023)

Test system: cellulase enzyme cocktail TEC210
Test: Effect of gluconic acid on enzymatic hydrolysis of pretreated corn stover by TEC210
Format: biochemical, Rasamsonia
Details: for Glucose release (in %): 6% w/w dm, pH 4.5, 62° C., 50 hours, 5 mg TEC210/g dm
Description: Twenty grams of pretreated corn stover were incubated in a 50 ml Greiner test tube for 50 hours at a dry matter level of 6% w/w, pH 4.5 at 62° C. in the presence of 5 mg of the cellulase enzyme cocktail TEC210 per gram of dry matter and in the presence of 0, 2, 4, 6, or 8 g/l gluconic acid to determine the inhibiting effect of gluconic acid on the hydrolysis of glucan in lignocellulosic feedstock. The experiment is performed at maximum oxygen saturation.
Samples were taken after 50 hours of incubation and the samples were centrifuged for further analysis in an Eppendorf centrifuge type 5810 for 8 minutes at 4000 rpm. The glucose concentration was measured in the supernatant of each sample by means of HPLC using a Bio-Rad HPX87H column. The glucose release as presented in Table 3 is a direct measure for the enzymatic hydrolysis (glucan hydrolysis). A gluconic acid level of 2 g/l in the supernatant corresponds with 89 g/kg glucan in the lignocellulosic material. This can be calculated as described above with a density of 1.02 kg/I, a pellet factor of 2% and a glucan content of 21.6 g glucan/kg hydrolysate.

`O=C(O)[C@H](O)[C@@H](O)[C@H](O)[C@H](O)CO` [Gluconic acid, gluconic acid] was tested, and the “Glucose release (in %)” value (gluconic acid added 2 g/l (89 g/kg glucan)) was 90%, the “Glucose release (in %)” value (gluconic acid added 4 g/l (178 g/kg glucan)) was 82% and the “Glucose release (in %)” value (gluconic acid added 6 g/l (267 g/kg glucan)) was 79%. The “Glucose release (in %)” value (gluconic acid added 8 g/l (356 g/kg glucan)) was 77% and the “effect on glucan hydrolysis” value (higher concentrations of gluconic acid) was “negative effect on glucan hydrolysis”.
